Article PMC12622451, “NADPH Oxidase Inhibition Promotes Brain Resilience by Attenuating Tauopathy and Neuroinflammation in Alzheimer's Disease” (Advanced Science, 2025)

What was measured:
human Nox4 [1] = target: T1, human Nox4 (Homo sapiens, UniProt Q9NPH5); assay: ROS chemiluminescence with Drosophila membranes expressing human Nox4; type: biochemical
T1 sequence (Q9NPH5 1-578): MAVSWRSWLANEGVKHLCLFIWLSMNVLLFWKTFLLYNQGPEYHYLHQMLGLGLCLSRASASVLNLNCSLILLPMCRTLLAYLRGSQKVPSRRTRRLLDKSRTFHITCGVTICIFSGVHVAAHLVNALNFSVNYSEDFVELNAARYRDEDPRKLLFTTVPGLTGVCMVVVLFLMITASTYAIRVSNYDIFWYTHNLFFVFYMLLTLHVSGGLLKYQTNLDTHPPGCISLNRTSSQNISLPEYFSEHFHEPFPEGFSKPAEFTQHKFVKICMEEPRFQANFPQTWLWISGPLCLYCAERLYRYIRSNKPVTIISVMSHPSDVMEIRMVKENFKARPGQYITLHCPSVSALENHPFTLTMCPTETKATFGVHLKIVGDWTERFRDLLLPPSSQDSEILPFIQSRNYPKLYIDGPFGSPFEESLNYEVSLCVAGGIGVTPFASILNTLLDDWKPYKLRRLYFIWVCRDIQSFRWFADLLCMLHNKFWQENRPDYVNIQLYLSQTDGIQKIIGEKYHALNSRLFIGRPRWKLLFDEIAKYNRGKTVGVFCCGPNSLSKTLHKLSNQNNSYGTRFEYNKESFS

human Nox2 [2] = target: T2, human Nox2 (Homo sapiens, UniProt P04839); assay: ROS chemiluminescence with Drosophila membranes expressing human Nox2; type: biochemical
T2 construct: gene CYBB
T2 sequence (P04839 2-570): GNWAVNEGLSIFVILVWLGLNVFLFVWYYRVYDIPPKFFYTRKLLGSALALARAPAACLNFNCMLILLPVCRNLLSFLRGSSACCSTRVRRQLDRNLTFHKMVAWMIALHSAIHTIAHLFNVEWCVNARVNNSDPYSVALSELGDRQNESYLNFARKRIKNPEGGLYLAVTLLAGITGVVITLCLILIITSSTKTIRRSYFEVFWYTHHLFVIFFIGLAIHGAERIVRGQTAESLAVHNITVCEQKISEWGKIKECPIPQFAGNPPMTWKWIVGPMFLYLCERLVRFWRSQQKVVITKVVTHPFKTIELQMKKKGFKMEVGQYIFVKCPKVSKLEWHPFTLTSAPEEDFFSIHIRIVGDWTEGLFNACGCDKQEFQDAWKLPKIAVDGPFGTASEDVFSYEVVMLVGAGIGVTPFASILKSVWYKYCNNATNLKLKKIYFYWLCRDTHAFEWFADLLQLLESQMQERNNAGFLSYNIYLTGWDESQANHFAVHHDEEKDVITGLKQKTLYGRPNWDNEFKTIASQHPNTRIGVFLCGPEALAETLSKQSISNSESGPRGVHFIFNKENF

human Nox1 [3] = target: T3, human Nox1 (Homo sapiens, UniProt Q9Y5S8); assay: ROS chemiluminescence with Drosophila membranes expressing human Nox1; type: biochemical
T3 sequence (Q9Y5S8 1-564): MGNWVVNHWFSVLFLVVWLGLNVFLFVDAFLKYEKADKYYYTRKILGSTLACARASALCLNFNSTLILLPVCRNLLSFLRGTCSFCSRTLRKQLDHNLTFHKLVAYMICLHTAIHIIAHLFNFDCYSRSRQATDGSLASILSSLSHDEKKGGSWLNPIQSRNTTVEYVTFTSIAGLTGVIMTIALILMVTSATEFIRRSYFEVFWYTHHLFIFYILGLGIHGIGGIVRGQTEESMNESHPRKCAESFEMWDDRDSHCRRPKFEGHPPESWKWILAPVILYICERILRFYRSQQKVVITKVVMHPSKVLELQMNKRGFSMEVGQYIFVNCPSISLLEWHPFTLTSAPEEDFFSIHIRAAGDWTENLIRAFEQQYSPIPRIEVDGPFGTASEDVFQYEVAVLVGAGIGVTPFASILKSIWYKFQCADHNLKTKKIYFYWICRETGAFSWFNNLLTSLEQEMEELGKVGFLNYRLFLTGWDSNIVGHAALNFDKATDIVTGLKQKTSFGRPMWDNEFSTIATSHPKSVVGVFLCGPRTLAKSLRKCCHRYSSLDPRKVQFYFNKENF

human Duox1 = human Duox1 (Homo sapiens, UniProt Q9NRD9); assay: ROS chemiluminescence with Drosophila membranes expressing human Duox1; type: biochemical
human Duox1, sequence (Q9NRD9 22-1551): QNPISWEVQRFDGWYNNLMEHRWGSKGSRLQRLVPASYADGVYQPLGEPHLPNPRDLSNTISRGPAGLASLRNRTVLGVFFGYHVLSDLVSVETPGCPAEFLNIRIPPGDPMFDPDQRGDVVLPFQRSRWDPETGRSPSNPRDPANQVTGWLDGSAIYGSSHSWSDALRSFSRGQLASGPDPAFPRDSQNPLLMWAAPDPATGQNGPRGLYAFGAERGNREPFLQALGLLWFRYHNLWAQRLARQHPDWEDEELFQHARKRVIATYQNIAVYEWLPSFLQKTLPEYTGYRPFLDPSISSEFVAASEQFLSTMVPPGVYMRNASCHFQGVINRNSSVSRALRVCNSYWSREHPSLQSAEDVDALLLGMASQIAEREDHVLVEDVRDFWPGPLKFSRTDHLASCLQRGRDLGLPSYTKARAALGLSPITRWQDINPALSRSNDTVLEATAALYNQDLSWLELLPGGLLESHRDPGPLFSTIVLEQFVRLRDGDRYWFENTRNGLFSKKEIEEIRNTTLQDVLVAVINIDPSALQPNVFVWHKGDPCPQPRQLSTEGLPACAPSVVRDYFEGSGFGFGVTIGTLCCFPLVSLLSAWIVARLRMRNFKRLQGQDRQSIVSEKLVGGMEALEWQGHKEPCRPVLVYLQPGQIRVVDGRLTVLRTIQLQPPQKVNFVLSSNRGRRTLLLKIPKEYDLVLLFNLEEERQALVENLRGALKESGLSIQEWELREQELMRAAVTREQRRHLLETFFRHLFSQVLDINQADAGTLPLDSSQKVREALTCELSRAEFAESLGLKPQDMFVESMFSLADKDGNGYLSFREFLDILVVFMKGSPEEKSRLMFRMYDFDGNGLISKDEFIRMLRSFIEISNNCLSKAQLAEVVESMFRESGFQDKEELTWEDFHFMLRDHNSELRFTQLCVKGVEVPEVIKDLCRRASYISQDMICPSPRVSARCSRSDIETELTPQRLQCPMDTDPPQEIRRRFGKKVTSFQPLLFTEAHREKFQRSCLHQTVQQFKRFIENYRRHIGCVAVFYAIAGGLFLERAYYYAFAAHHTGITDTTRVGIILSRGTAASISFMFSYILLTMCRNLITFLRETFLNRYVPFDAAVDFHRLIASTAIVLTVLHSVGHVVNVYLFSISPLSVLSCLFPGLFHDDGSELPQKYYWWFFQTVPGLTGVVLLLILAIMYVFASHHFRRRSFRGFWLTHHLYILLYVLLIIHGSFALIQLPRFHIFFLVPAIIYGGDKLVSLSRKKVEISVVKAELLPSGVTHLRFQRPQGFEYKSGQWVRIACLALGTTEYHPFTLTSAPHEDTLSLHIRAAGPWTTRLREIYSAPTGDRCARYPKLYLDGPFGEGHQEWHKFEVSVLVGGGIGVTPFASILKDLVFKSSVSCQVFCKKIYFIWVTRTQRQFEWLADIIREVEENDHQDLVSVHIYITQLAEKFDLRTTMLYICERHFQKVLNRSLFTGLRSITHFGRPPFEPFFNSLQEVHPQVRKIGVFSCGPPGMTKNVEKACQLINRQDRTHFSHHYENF

human Nox5 = target: T4, human Nox5 (Homo sapiens, UniProt Q96PH1); assay: ROS chemiluminescence with Drosophila membranes expressing human Nox5; type: biochemical
T4 sequence (Q96PH1 1-765): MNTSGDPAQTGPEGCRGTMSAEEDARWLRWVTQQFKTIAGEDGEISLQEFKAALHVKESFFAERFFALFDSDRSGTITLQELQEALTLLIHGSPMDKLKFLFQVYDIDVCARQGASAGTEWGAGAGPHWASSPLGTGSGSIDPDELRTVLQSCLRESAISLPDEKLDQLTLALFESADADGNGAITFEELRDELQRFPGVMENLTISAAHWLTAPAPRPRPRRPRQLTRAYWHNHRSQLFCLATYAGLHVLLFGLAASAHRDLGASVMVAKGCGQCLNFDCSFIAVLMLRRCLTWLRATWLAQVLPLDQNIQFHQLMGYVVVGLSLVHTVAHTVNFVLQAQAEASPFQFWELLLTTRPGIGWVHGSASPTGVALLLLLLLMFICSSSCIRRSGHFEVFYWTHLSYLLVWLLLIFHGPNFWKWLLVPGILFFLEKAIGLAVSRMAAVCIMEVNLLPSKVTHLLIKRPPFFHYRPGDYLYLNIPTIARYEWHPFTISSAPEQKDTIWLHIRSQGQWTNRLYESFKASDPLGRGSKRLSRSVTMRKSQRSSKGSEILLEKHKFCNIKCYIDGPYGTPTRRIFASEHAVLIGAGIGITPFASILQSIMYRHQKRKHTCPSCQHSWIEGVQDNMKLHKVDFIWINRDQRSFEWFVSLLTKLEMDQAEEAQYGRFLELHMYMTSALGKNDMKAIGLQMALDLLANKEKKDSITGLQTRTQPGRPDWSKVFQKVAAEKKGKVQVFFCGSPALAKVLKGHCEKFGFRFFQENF

human Duox2 = human Duox2 (Homo sapiens, UniProt Q9NRD8); assay: ROS chemiluminescence with Drosophila membranes expressing human Duox2; type: biochemical
human Duox2, sequence (Q9NRD8 26-1548): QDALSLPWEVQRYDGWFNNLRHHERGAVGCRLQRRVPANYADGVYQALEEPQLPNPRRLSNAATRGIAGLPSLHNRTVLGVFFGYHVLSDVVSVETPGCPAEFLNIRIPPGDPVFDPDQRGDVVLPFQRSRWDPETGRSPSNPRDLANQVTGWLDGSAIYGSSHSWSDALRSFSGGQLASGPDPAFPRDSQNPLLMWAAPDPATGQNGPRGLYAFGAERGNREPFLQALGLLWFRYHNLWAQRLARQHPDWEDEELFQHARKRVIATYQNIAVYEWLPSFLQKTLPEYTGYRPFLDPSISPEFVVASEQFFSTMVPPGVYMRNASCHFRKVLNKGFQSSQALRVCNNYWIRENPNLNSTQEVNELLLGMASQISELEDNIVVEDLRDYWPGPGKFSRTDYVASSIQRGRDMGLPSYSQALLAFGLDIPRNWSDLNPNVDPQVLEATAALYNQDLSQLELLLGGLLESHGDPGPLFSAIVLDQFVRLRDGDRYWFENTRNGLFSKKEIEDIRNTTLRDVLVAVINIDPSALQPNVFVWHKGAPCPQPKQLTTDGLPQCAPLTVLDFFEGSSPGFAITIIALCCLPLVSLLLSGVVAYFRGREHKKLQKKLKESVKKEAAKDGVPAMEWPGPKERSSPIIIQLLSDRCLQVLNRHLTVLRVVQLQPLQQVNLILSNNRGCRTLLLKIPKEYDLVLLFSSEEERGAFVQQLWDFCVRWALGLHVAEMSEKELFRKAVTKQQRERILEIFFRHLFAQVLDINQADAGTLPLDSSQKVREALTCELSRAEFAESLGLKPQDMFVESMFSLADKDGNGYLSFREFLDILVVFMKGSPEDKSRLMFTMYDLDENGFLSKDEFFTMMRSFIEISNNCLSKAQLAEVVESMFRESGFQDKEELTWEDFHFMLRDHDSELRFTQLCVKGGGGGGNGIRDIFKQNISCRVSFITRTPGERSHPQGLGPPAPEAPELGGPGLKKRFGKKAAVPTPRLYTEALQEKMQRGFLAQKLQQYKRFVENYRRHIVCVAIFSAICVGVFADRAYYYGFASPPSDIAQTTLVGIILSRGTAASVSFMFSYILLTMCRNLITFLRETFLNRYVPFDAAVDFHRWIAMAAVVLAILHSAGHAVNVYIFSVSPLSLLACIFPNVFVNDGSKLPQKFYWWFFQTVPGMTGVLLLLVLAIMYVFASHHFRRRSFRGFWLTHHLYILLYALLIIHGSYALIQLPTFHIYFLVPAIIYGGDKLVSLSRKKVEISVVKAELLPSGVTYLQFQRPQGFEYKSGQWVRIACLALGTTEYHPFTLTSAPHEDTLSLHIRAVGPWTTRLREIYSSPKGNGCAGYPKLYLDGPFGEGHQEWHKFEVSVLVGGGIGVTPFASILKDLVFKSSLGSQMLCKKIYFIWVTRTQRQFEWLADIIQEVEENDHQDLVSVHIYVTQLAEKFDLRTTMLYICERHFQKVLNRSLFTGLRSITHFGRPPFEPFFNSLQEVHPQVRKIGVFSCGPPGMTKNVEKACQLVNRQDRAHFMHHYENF

human Nox4 [4] = target: T1, human Nox4; assay: lucigenin chemiluminescence with Drosophila membranes expressing human Nox4; type: cell-based
human Nox2 [5] = target: T2, human Nox2; assay: lucigenin chemiluminescence with Drosophila membranes expressing human Nox2; type: cell-based
human Nox1 [6] = target: T3, human Nox1

## O=C(Nc1nnc(-c2ccccc2)o1)c1ccc(F)c(C(F)(F)F)c1 [CRB-2131, 4‐fluoro‐N‐(5‐phenyl‐1,3,4‐oxadiazol‐2‐yl)‐3‐(trifluoromethyl) benzamide]
Human Nox4 [1]
  IC50: 200 to 300 nM
Human Nox2 [2]
  IC50: 200 to 300 nM
Human Nox1 [3]
  IC50: 200 to 300 nM
Human Duox1
  IC50: 200 to 300 nM
Human Nox5
  IC50: 200 to 300 nM
Human Duox2
  IC50: 200 to 300 nM

## c1ccc2c(c1)[I+]c1ccccc1-2 [DPI, Diphenyleneiodonium chloride]
Human Nox4 [4]
  lucigenin chemiluminescence with Drosophila membranes expressing human Nox4: DPI exhibited low Nox inhibitory activity, while GSK2795039 showed very minimal inhibition
Human Nox2 [5]
  lucigenin chemiluminescence with Drosophila membranes expressing human Nox2: DPI exhibited low Nox inhibitory activity, while GSK2795039 showed very minimal inhibition
Human Nox1 [6]
  lucigenin chemiluminescence with Drosophila membranes expressing human Nox1: DPI exhibited low Nox inhibitory activity, while GSK2795039 showed very minimal inhibition
